{
  "source": "patent US20160176769A1",
  "about": "“PARTICULATE NITRIFICATION INHIBITOR SYSTEMS” (Ballance Agri-Nutrients Limited, priority 2008, published 2016)",
  "test_system": "nitrification in soil",
  "test": "closed soil incubation experiment (nitrate and ammonium analyses of incubated soil)",
  "conditions": "urea approx. 200 kg N/ha, Horotiu silt loam, 20°C",
  "protocol": "A closed soil incubation experiment was established with the three compositions or products. The beat treated DCD was added at 10 kg/ha and the DCD/P fertiliser blends were added at 10 kg DCD/ha equivalent.\nA control (urea only) and 2 DCD rates (10 kg DCD/ha and 1 kg DCD/ha) were included. Ten kg/ha is a standard rate of DCD application and matches the DCD/P fertiliser rate while 1 kg/ha matches the DCD rate applied in the heat treated product which was 10% W /W DCD. All treatments received urea solution at approximately 200 kg N/ha, and were replicated three times.\nThe soil was a Horotiu silt loam (Yellow Brown Loam) collected to a depth of approximately 100 mm from a site on the Ruakuta farm. The soil was sieved through a 4 mm sieve and stored at 4 ° C. overnight. Sub-samples were taken to determine the moisture content, soil water holding capacity and initial inorganic N concentration. To measure moisture content, subsamples were dried at 105° C. for 24 hours.\nStock solutions of urea, DCD and heated treated DCD were prepared. The compositions were diluted in water to aid dispersion through the soil and the more accurate addition of small amounts of material. The DCD/fertiliser blends however were weighed and applied dry as the material was largely insoluble.\nEach replicated treatment was added to 150 g of dry soil equivalent (195 g field moist soil) in a resealable plastic bag. Distilled water was added as necessary to increase the soil moisture to around 60% of water holding capacity. The contents of each bag were mixed thoroughly, and the bags sealed to include as much air as possible to ensure an aerobic environment was maintained. The bags were placed in an incubator set at 20°C. for the duration of the experiment (14 days).\nSoil sub-samples were taken from the bags at 2, 5, 9 and 14 days after incubation commenced for ammonium and nitrate analysis. The equivalent of approximately 5 g dry weight of soil was weighed into 150 mL flasks, 50 mL of 2 M potassium chloride (KCl) was added and the flasks shaken for one hour using end-over-end shakers (Mulvaney, 1996). The extractant was filtered (Whatman #42 filter paper) before being frozen prior to analysis for nitrate-N and ammoniumn-N using a Skalar segmented flow analyser. The data were statistically analysed using the ANOVA directive of GenStat (10th Edition) and L.S.D. (least significant difference) were calculated.",
  "key": {"[1]": {"conditions": "Day 2, applied at 10 kg/ha (blends 10 kg DCD/ha equivalent)"}, "[2]": {"conditions": "Day 5, applied at 10 kg/ha (blends 10 kg DCD/ha equivalent)"}, "[3]": {"conditions": "Day 9, applied at 10 kg/ha (blends 10 kg DCD/ha equivalent)"}, "[4]": {"conditions": "Day 14, applied at 10 kg/ha (blends 10 kg DCD/ha equivalent)"}},
  "data": [
    {"smiles": "N#CN=C(N)N", "note": "[DCD, dicyandiamide]", "values": [
      {"measurement": "Average ammonium concentration in soil", "setting": "Day 2, applied at 1 kg/ha", "result": 149.7, "unit": "μg NH4—N/g soil"},
      {"measurement": "Average nitrate concentration in soil", "setting": "Day 2, applied at 1 kg/ha", "result": 55.8, "unit": "μg NO3—N/g soil"},
      {"measurement": "Average ammonium concentration in soil", "setting": "[1]", "result": 159.7, "unit": "μg NH4—N/g soil"},
      {"measurement": "Average nitrate concentration in soil", "setting": "[1]", "result": 48.1, "unit": "μg NO3—N/g soil"},
      {"measurement": "Average ammonium concentration in soil", "setting": "Day 5, applied at 1 kg/ha", "result": 81.6, "unit": "μg NH4—N/g soil"},
      {"measurement": "Average nitrate concentration in soil", "setting": "Day 5, applied at 1 kg/ha", "result": 139.4, "unit": "μg NO3—N/g soil"},
      {"measurement": "Average ammonium concentration in soil", "setting": "[2]", "result": 106.2, "unit": "μg NH4—N/g soil"},
      {"measurement": "Average nitrate concentration in soil", "setting": "[2]", "result": 108.7, "unit": "μg NO3—N/g soil"},
      {"measurement": "Average ammonium concentration in soil", "setting": "Day 9, applied at 1 kg/ha", "result": 23.2, "unit": "μg NH4—N/g soil"},
      {"measurement": "Average nitrate concentration in soil", "setting": "Day 9, applied at 1 kg/ha", "result": 193.7, "unit": "μg NO3—N/g soil"},
      {"measurement": "Average ammonium concentration in soil", "setting": "[3]", "result": 63.1, "unit": "μg NH4—N/g soil"},
      {"measurement": "Average nitrate concentration in soil", "setting": "[3]", "result": 148.1, "unit": "μg NO3—N/g soil"},
      {"measurement": "Average ammonium concentration in soil", "setting": "Day 14, applied at 1 kg/ha", "result": 1.3, "unit": "μg NH4—N/g soil"},
      {"measurement": "Average nitrate concentration in soil", "setting": "Day 14, applied at 1 kg/ha", "result": 233.8, "unit": "μg NO3—N/g soil"},
      {"measurement": "Average ammonium concentration in soil", "setting": "[4]", "result": 22.1, "unit": "μg NH4—N/g soil"},
      {"measurement": "Average nitrate concentration in soil", "setting": "[4]", "result": 216.6, "unit": "μg NO3—N/g soil"}
    ]}
  ]
}
